Measurements as given in PubChem BioAssay (NCI).
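Method: 48-hour compound exposure of cells in 96-well plates, five concentrations, linear interpolation of endpoints. GI50 = concentration required for 50% inhibition of growth. TGI: total growth inhibition.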

What was measured:
Test in all cases: growth of human tumour cells (NCI), 48 h
[1] = system: 786-0 renal
[2] = system: A498 renal
[3] = system: A549 NSCLC
[4] = system: ACHN renal
[5] = system: BT-549 breast
[6] = system: CAKI-1 renal
[7] = system: CCRF-CEM leukemia
[8] = system: COLO 205 colon
[9] = system: DU-145 prostate
[10] = system: EKVX NSCLC
[11] = system: HCC-2998 colon
[12] = system: HCT-116 colon
[13] = system: HCT-15 colon
[14] = system: HL-60(TB) leukemia
[15] = system: HOP-62 NSCLC
[16] = system: HOP-92 NSCLC
[17] = system: HS 578T breast
[18] = system: HT29 colon
[19] = system: IGROV1 ovarian
[20] = system: K-562 leukemia
[21] = system: KM12 colon
[22] = system: LOX IMVI melanoma
[23] = system: M14 melanoma
[24] = system: MALME-3M melanoma
[25] = system: MCF7 breast
[26] = system: MDA-MB-231 breast
[27] = system: MDA-MB-435
[28] = system: MOLT-4 leukemia
[29] = system: NCI-H226 lung
[30] = system: NCI-H23 lung
[31] = system: NCI-H460 lung
[32] = system: NCI-H522 lung
[33] = system: NCI/ADR-RES ovarian
[34] = system: OVCAR-3 ovarian
[35] = system: OVCAR-4 ovarian
[36] = system: OVCAR-5 ovarian
[37] = system: OVCAR-8 ovarian
[38] = system: PC-3 prostate
[39] = system: RPMI-8226 leukemia
[40] = system: RXF 393 renal
[41] = system: SF-268 CNS
[42] = system: SF-295 CNS
[43] = system: SF-539 CNS
[44] = system: SK-MEL-2 melanoma
[45] = system: SK-MEL-28 melanoma
[46] = system: SK-MEL-5 melanoma
[47] = system: SK-OV-3 ovarian
[48] = system: SN12C renal
[49] = system: SNB-19 CNS
[50] = system: SNB-75 CNS
[51] = system: SR leukemia
[52] = system: SW-620 colon
[53] = system: T-47D breast
[54] = system: TK-10 renal
[55] = system: U251 CNS
[56] = system: UACC-257 melanoma
[57] = system: UACC-62 melanoma
[58] = system: UO-31 renal

For O=C(NNc1nc2cc(F)cc(F)c2n2cccc12)c1ccncn1, the GI50 [1] was > 30 µM, the TGI [1] was > 30 µM and the GI50 [2] was > 30 µM. The TGI [2] was > 30 µM, the GI50 [3] was > 30 µM and the TGI [3] was > 30 µM. For the same compound, the GI50 [4] was > 30 µM, the TGI [4] was > 30 µM and the GI50 [5] was > 30 µM. The TGI [5] was > 30 µM, the GI50 [6] was > 30 µM and the TGI [6] was > 30 µM. For the same compound, the GI50 [7] was > 30 µM, the TGI [7] was > 30 µM and the GI50 [8] was > 30 µM. The TGI [8] was > 30 µM, the GI50 [9] was > 30 µM and the TGI [9] was > 30 µM. For the same compound, the GI50 [10] was > 30 µM, the TGI [10] was > 30 µM and the GI50 [11] was > 30 µM. For the same compound, the TGI [11] was > 30 µM, the GI50 [12] was > 30 µM and the TGI [12] was > 30 µM. For the same compound, the GI50 [13] was > 30 µM, the TGI [13] was > 30 µM and the GI50 [14] was > 30 µM. The TGI [14] was > 30 µM, the GI50 [15] was > 30 µM and the TGI [15] was > 30 µM. For the same compound, the GI50 [16] was > 30 µM, the TGI [16] was > 30 µM and the GI50 [17] was > 30 µM. The TGI [17] was > 30 µM, the GI50 [18] was > 30 µM and the TGI [18] was > 30 µM. The GI50 [19] was > 30 µM, the TGI [19] was > 30 µM and the GI50 [20] was > 30 µM. The TGI [20] was > 30 µM, the GI50 [21] was > 30 µM and the TGI [21] was > 30 µM. The GI50 [22] was > 30 µM, the TGI [22] was > 30 µM and the GI50 [23] was > 30 µM. For the same compound, the TGI [23] was > 30 µM, the GI50 [24] was > 30 µM and the TGI [24] was > 30 µM. The GI50 [25] was > 30 µM, the TGI [25] was > 30 µM and the GI50 [26] was > 30 µM. The TGI [26] was > 30 µM, the GI50 [27] was > 30 µM and the TGI [27] was > 30 µM. The GI50 [28] was > 30 µM, the TGI [28] was > 30 µM and the GI50 [29] was > 30 µM. The TGI [29] was > 30 µM, the GI50 [30] was > 30 µM and the TGI [30] was > 30 µM. For the same compound, the GI50 [31] was > 30 µM, the TGI [31] was > 30 µM and the GI50 [32] was > 30 µM. For the same compound, the TGI [32] was > 30 µM, the GI50 [33] was > 30 µM and the TGI [33] was > 30 µM. The GI50 [34] was > 30 µM, the TGI [34] was > 30 µM and the GI50 [35] was > 30 µM. For the same compound, the TGI [35] was > 30 µM, the GI50 [36] was > 30 µM and the TGI [36] was > 30 µM. The GI50 [37] was > 30 µM, the TGI [37] was > 30 µM and the GI50 [38] was > 30 µM. For the same compound, the TGI [38] was > 30 µM, the GI50 [39] was > 30 µM and the TGI [39] was > 30 µM. For the same compound, the GI50 [40] was > 30 µM, the TGI [40] was > 30 µM and the GI50 [41] was > 30 µM. The TGI [41] was > 30 µM, the GI50 [42] was > 30 µM and the TGI [42] was > 30 µM. The GI50 [43] was > 30 µM, the TGI [43] was > 30 µM and the GI50 [44] was > 30 µM. The TGI [44] was > 30 µM, the GI50 [45] was > 30 µM and the TGI [45] was > 30 µM. The GI50 [46] was > 30 µM, the TGI [46] was > 30 µM and the GI50 [47] was > 30 µM. For the same compound, the TGI [47] was > 30 µM, the GI50 [48] was > 30 µM and the TGI [48] was > 30 µM. The GI50 [49] was > 30 µM, the TGI [49] was > 30 µM and the GI50 [50] was > 30 µM. For the same compound, the TGI [50] was > 30 µM, the GI50 [51] was > 30 µM and the TGI [51] was > 30 µM. For the same compound, the GI50 [52] was > 30 µM, the TGI [52] was > 30 µM and the GI50 [53] was > 30 µM. For the same compound, the TGI [53] was > 30 µM, the GI50 [54] was > 30 µM and the TGI [54] was > 30 µM. The GI50 [55] was > 30 µM, the TGI [55] was > 30 µM and the GI50 [56] was > 30 µM. For the same compound, the TGI [56] was > 30 µM, the GI50 [57] was > 30 µM and the TGI [57] was > 30 µM. The GI50 [58] was > 30 µM and the TGI [58] was > 30 µM.
